For one data set, the system named is CREB target gene NR4A2. The experiment in a line: Quantitative PCR of CREB target gene NR4A2 in MIN6 insulinoma cells. The data set is classed as cell-based. As to the method: FIG. 1B presents quantitative PCR (Q-PCR) analysis of the CREB target gene NR4A2 in MIN6 insulinoma cells exposed to glucose (20 mM) and/or exendin-4 (10 nM).
Cells were treated with cAMP agonist (Forskolin, 10 μM) and KCl (45 mM) or vehicle control. For glucose experiments, MIN6 cells were starved overnight in DME containing 2.75 mM glucose plus 16 mM mannitol and 10% FBS. The next day the medium was changed for the indicated times+inhibitor. Total RNA from treated MIN6 or HIT cells was extracted using an RNeasy mini-kit (Qiagen, Valencia, Calif.). 500 ng-1 μg of total RNA was used for generating cDNA with Superscript II enzyme (Invitrogen, Carlsbad, Calif.). cDNAs were analyzed by quantitative PCR using SYBR green PCR kit and an ABIPRISM 7700 Sequence detector (Perkin Elmer, Foster City, Calif.). All PCR data for CREB target NR4A2 (Conkright et al., 2003b) was normalized to ribosomal L32 or 36B4 expression in the corresponding sample.
Hamster insulinoma (HIT) cells were employed to test the relative effects of cAMP and calcium signals on CREB activity. Opening of voltage-sensitive L-type calcium channels in response to KC1 depolarization induced the CREB-dependent EVX-1 promoter (Conknight et al., 2003b) 5-fold in HIT cells, whereas addition of cAMP agonist stimulated the reporter 10-fold (see FIG. 1A). […]

Data set [1] has as its system TORC2. Nature of the data set: TORC2 localization, Ser171 phosphorylation and promoter recruitment in liver after IP injection. The data set is classed as in vivo. The note with it: mice.
The next data set relates to CREB. The experiment in a line: CREB Ser133 phosphorylation in liver after IP injection (histochemical and Western blot). The data set is classed as in vivo. The note with it: mice; intraperitoneal administration. For orientation: In western blotting, separated proteins are transferred to a membrane and probed.
Data set [2] deals with TORC2. The experiment in a line: TORC2 phosphorylation in primary rat hepatocytes (Western blot). The data set is classed as cell-based. The note with it: primary rat hepatocytes. The source says:
FIG. 18B illustrates the effect of CHX on levels of phospho (Ser171) TORC2 in primary rat hepatocytes treated with glucagon over a variety of time points, shown in hours. Western blot assay indicates the levels of TORC2, phospho (Ser171) TORC2 and CREB.
Specifically, FIG. 19A, top, presents a Western blot showing the effect of US and SIK1 RNAi adenoviruses on the levels of SIK1 protein in rat hepatocytes. FIG. 19A, bottom, presents a Western blot assay with nondiscriminating TORC2 antiserum, showing the effect of SIK1 RNAi adenovirus on TORC2 dephosphorylation (compare P-TORC2 and TORC2 bands) following exposure of primary rat hepatocytes to glucagon (Gluc). The arrow identifies phosphorylated TORC2.
Cells were exposed to AICAR and FSK for 30 minutes. Lower mobility bands (arrow) indicate phosphorylated TORC2 polypeptides.
Rat primary hepatocytes were prepared from 200-300g of Sprague-Dawley rats by collagenase perfusion method as described previously (see Koo et al., 2004). 1×10^6 cells were plated in 6 well plates with medium 199 (Invitrogen, Carlsbad, Calif.) supplemented by 10% FBS, 10 units/ml penicillin, 10 μg/ml streptomycin, and 10 nM dexamethasone for 3-6 hours. After attachment, cells were infected with adenoviruses for 16 hours. Subsequently, cells were maintained in medium 199 without FBS and dexamethasone for 24 hours (for cDNA expression adenoviruses) or 48 hours (for RNAi adenoviruses) and […] forskolin or 100 nM glucagon for 2 hours unless noted otherwise. For experiments with cycloheximide, 10 μg/ml cycloheximide was added 30 minutes prior to the addition of 100 nM glucagon.
Like other signaling pathways, cAMP stimulates gluconeogenic gene expression with burst-attenuation kinetics (see Sasaki et al., 1984). Following exposure of primary hepatocytes to Forskolin, PEPCK mRNA levels became maximal after 2 hours, returning to near baseline after 4 hours (see FIG. 18A). […] Consistent with this, CHX pre-treatment potentiated gluconeogenic gene expression in primary rat hepatocytes exposed to glucagon 2-3 fold (see FIG. 18C). […]

A further data set relates to β cell. The note with it: organ transplant recipients receiving chronic immunosuppressive therapy; cited from earlier work.
For data set [3], the system named is TORC2. Nature of the data set: Immunofluorescence of TORC localization in ATYB1 fibroblasts. The data set is classed as cell-based, human. The note with it: ATYB1 cells. As to the method: Specifically, FIG. 3A presents fluorescence microscopic analysis of Flag-tagged TORC2 in human ATYBI fibroblasts treated with forskolin (10 μM) or control vehicle for 30 minutes as indicated.
FIG. 3B illustrates the effect of exportin inhibitor leptomycin B (LMB) on nuclear targeting of TORC2 in transfected ATYB1 fibroblasts. DAPI staining is shown alongside to indicate nuclei.
FIG. 7C, top panels, illustrate the effect of SIK2 (or related family members) on TORC2 subcellular localization. Immunofluorescence microscopy is presented for ATYB1 cells transfected with Flagtagged TORC2 plus wild-type or PKA phosphorylation defective SIK2 (Ser587Ala) as indicated. DAP1 staining is shown below each panel. FIG. 7C, bottom panels, illustrate the effect of Ser171 Ala mutagenesis on cellular localization of TORC2. Treatment with forskolin is indicated.
FIG. 13, top panels, illustrates the cellular localization of endogenous TORC proteins in ATYBI cells using TORC specific antiserum. The effect of forskolin (10 μM, 30 minutes) and leptomycin B (LMB, 10 ng/ml, 2 hr) treatment is shown. DAP1 staining is shown below to visualize the nuclei. FIG. 13, bottom panel, illustrates the effect of LMB treatment on TORC1 localization in ATYBI cells transfected with flag-tagged TORC1 expression vector. TORC1 localization was followed using anti-flag antiserum. DAP1 staining is shown alongside. […]

The test system of data set [4] is gluconeogenic genes (PEPCK, PGC-1α, G6Pase). Nature of the data set: Q-PCR of gluconeogenic gene expression in primary rat hepatocytes. The data set is classed as cell-based. The note with it: primary rat hepatocytes exposed to glucagon; CHX pre-treatment. As to the method: Specifically, FIG. 17A illustrates the effect of TORC2 on induction of gluconeogenic genes (PEPCK, PGC-1α, G6Pase) by FSK (10 μM, 2 hr) in cultured primary rat hepatocytes infected with TORC2 or control GFP adenovinus as indicated.
FIGS. 18A-18H illustrate that the induction of the AMP kinase family member SIK1 by CREB during fasting attenuates the gluconeogenic program. Specifically, FIG. 18A illustrates the time course of PEPCK gene expression in primary rat hepatocytes following exposure to FSK. mRNA levels were determined by Q-PCR analysis.
FIG. 18C illustrates the effect of CHX pretreatment on induction of gluconeogenic genes (PEPCK, PGC-1α, G6Pase) by glucagon in primary rat hepatocytes. Relative mRNA levels are shown.
FIG. 19B summarizes the effect of SIK1 RNAi on gluconeogenic gene expression in primary rat hepatocytes, presenting Q-PCR analysis showing the relative induction of PEPCK, PGC-1α, and G6Pase mRNAs by glucagon in cells infected with control (US) or SIK1 RNAi expressing adenoviruses.
FIG. 20D summarizes the effect of AlCAR on expression of gluconeogenic genes (PEPCK, PGC-1α) in primary rat hepatocytes. Cells infected with mutant Ser171Ala TORC2 (171) adenovinus indicated. Treatment with AICAR and FSK is shown.
Rat primary hepatocytes were prepared from 200-300g of Sprague-Dawley rats by collagenase perfusion method as described previously (see Koo et al., 2004). […]

We go through six compounds from patent publication US7485434B2, “Method for screening compounds for those that modulate transducers of regulated CREB activity” (The Salk Institute for Biological Studies, priority 2005, dated 2009).

With `O=C[C@H](O)[C@@H](O)[C@H](O)[C@H](O)CO` [glucose], the “induction of NR4A2 expression” value in the data set on CREB target gene NR4A2 (high glucose (20 mM)) is 5 fold.
In the case of Exendin-4, the “NR4A2 mRNA levels enhanced” value in the data set on CREB target gene NR4A2 (co-stimulation glucose (20 mM) plus exendin-4 (10 nM)) was 35 fold.
glucagon: the “recruitment of TORC2 to gluconeogenic genes (ChIP of liver tissue)” value in the data set with TORC2 [1] (10 minutes after IP administration) is given as “promoted recruitment of TORC2 to gluconeogenic genes”. Also, in the data set on TORC2 [1] (IP administration), the “TORC2 phosphorylation at Ser171 in liver” value is “dephosphorylated”, the “nuclear translocation of hepatic TORC2” value is “induced translocation of TORC2 to liver nuclei” and the “time to translocation of TORC2 to liver nuclei” value was at most 10 min. In addition, in the data set on CREB, the “CREB Ser133 phosphorylation in liver” value is reported as “promote CREB Ser133 phosphorylation in liver” and the “time to CREB Ser133 phosphorylation in liver” value was at most 10 min. For the same compound, in the data set with TORC2 [2] (3 hours after stimulation), the “TORC2 phosphorylation at Ser171” value is recorded as “strongly induced”.
`C=CC[C@@H]1/C=C(\C)C[C@H](C)C[C@H](OC)[C@H]2O[C@@](O)(C(=O)C(=O)N3CCCC[C@H]3C(=O)O[C@H](/C(C)=C/[C@@H]3CC[C@@H](O)[C@H](OC)C3)[C@H](C)[C@@H](O)CC1=O)[C@H](C)C[C@@H]2OC` [FK506]: the “β cell failure and diabetes” value in the data set on β cell was “cause β cell failure and diabetes with high frequency”.
Regarding `CCC(=C/[C@H](C)C/C=C/C(C)=C/[C@@H](C)C(=O)[C@@H](C)[C@H](O)[C@@H](C)C/C(C)=C/C(=O)O)/C=C/[C@@H]1OC(=O)C=C[C@@H]1C` [leptomycin B], in the data set with TORC2 [3], the “time to nuclear accumulation of TORC” value lay within 30 to 60 min. Besides, the “nuclear accumulation of TORC” value in the data set on TORC2 [3] (forskolin 10 μM or LMB 10 ng/ml) is on record as “strongly enhanced nuclear accumulation”.
`C[C@@H]1C[C@@H]([C@H](O)CC2CC(=O)NC(=O)C2)C(=O)[C@@H](C)C1` [cycloheximide]: the “effect on TORC2 Ser171 phosphorylation by glucagon at 3 hours” value with TORC2 [2] (CHX pre-treatment 10 μg/ml) is “blocked phosphorylation of TORC2 at Ser171”. Moreover, the “potentiation of gluconeogenic gene expression” value in data set [4] was 2-3 fold.
